The values below come from patent publication US11738067B2, “Elevated intracranial pressure treatment” (INVEX THERAPEUTICS LTD., priority 2014, dated 2023).

“Also recorded” adds a separate entry of the source. The star is where a group is joined. Myristoyl = CCCCCCCCCCCCCC(=O)*

Assay [1] is described as follows: Clinical observation of ICP in IIH patients treated with diuretics. It counts as in vivo.
Assay [2] relates to Na^+K^+ATPase. Conditions: literature refs 10, 13-15; cited from earlier work.
The target in assay [3] is T1, GLP-1R (Rattus norvegicus, UniProt P32301).
T1 construct: The choroid plexus from the lateral ventricles were dissected and placed in artificial CSF; from tissue; host or cells: rat choroid plexus explants (lateral ventricles)
T1 sequence (P32301 22-463): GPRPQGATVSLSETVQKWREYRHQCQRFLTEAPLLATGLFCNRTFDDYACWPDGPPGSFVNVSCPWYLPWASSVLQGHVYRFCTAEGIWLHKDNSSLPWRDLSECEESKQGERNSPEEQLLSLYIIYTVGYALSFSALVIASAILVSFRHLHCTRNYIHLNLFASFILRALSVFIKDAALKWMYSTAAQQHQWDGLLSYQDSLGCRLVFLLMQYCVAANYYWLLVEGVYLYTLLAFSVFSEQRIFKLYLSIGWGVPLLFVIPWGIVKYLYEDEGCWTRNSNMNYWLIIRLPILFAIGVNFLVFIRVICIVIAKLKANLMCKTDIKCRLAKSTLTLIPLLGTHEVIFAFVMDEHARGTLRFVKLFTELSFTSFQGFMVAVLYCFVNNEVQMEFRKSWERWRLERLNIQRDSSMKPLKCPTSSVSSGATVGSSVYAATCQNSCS
In words: GLP-1R mRNA (qPCR) and protein (western blot) in choroid plexus explants. It counts as cell-based. Conditions: 100 nM. As to the method:
(§1) The choroid plexus from the lateral ventricles were dissected and placed in artificial CSF (aCSF; 118 mM NaCl, 22 mM NaHCO3, 1.45 mM K2HPO4, 1 mM MgSO4, 1 mM CaCl2 and 10 mM glucose). To evaluate the effects of Exendin-4 on GLP-1R localisation within the cell, the explants were incubated with aCSF containing 100 nM Exendin-9 for 15 minutes or 100 nM Exendin-4 for 15 and 30 minutes. The explants were then fixed and stained following the protocol described below. To determine the effects of Exendin-4 on GLP-1R mRNA expression and protein levels the explants were incubated with aCSF containing 100 nM Exendin-4 for 3 and 6 hours, immediately frozen in liquid nitrogen and stored at −80° C.
For qPCR studies, hypothalamus, anterior pituitary and choroid plexus were dissected, immediately frozen in liquid nitrogen and stored at −80° C. Primary cultures of CPe cells were grown on 12 well inserts until confluency. Total RNA was extracted using the GenElute mammalian total RNA extraction kit (Sigma-Aldrich) and carried out according to the manufacturer's instructions. RNA was reverse transcribed to complementary DNA (cDNA) using a high capacity reverse transcription kit according to the manufacturer's protocol (Life Technologies). Taqman Gene Expression Assays (Life Technologies) were used to assess the expression of GLP-1R (assay number Rn00562406_m1). The 18S ribosomal subunit was used as an endogenous reference (4319413E) and samples were run in triplicate. The cycle number at which the particular sample crossed that threshold (Ct) was used to determine the levels of gene expression and ΔCt was calculated as the difference between the Ct (gene of interest) and the Ct (endogenous reference).
The hypothalamus, pituitary and choroid plexus were dissected, immediately frozen in liquid nitrogen and stored at −80° C. Tissues were homogenised in ice cold lysis buffer (20 mM Tris-HCl pH 7.4, 150 mM NaCl, 1 mM EDTA, 0.5 mM EGTA, 1% NP-40 containing protease inhibitor) and centrifuged at 13,000 g to remove cell debris. CPe cells were grown on 12 well inserts until confluency. Cell and tissue lysates (3 μg protein) were separated on an 8% SDS-PAGE gel. […] After washing in TBST the membranes were incubated with HRP-conjugated secondary antibody diluted in milk/TBST for 1 hour at room temperature. The bands were detected using ECL reagents (Amersham) and developed onto film.

Assay [4] in a line: ICP recordings in conscious rats (epidural pressure bolt). It is filed as in vivo, rat. Conditions: for change in ICP from baseline: 30 and 60 minutes post treatment. As to the method:
This procedure and its validation were recently published as a methodological work and contains all technical and surgical detail (Uldall et al, 2014). In brief, rats were anaesthetised (2.7 ml/kg subcutaneous injection containing 1.25 mg/ml midazolam, 2.5 mg/ml fluanisone and 0.079 mg/ml fentanylcitrate). The rat was placed in a stereotactic frame (David Kopf Instruments) and a 2 cm-midline incision was performed on top of the skull and the bone was exposed by retracting the skin and soft tissue. A dental drill was used to induce 4 burr holes in the skull; one large hole was carefully drilled to expose the dura mater to enable placement of the epidural pressure bolt (C313G-3UP, PlasticsOne), with the cannula cut to be level with the base of the pedestal. The other 3 smaller holes were used to fit anchoring screws to the skull. The epidural pressure bolt and the anchoring screws were placed and aligned with the interior surface of the skull and secured using dental resin-cement (Clearfil SA Cement, RH Dental). The epidural pressure bolt and the transducer (DTX-Plus™, Argon Medical Devices) were then connected by a polyethylene tube filled with sterile water, ensuring the absence of air bubbles.
The pressure signal was visualised and recorded using Perisoft v.2.5.5 (Perimed). Correct ICP signal was confirmed by the transient elevation of ICP after jugular vein compression. When the ICP recording procedure was completed the epidural pressure bolt was closed with a bite proof cap (303DCFTX2, PlasticsOne) and the rat allowed to recover.
In order to perform recordings in conscious animals, rats were sedated with midazolam (2.5 mg/kg subcutaneous injection) and the transducer connected to the epidural pressure bolt. […] The ICP signal was again confirmed by jugular vein compression as described above. […]

The target of assay [5] is T1, GLP-1R. As to the kind of experiment: cAMP levels in choroid plexus explants. It is filed as cell-based. The conditions noted are these: 3 hours, vs aCSF. As to the method:
Histogram of mean±SEM of cAMP levels in choroid plexus explants in the 3 groups. The normal levels of cAMP observed with aCSF were increased after the addition of Exendin-4 (GLP-1R agonist) for 3 hours. Forskolin, an adenylate cyclase activator, acted as a positive control for cAMP levels;

Assay [6] addresses T1, GLP-1R. In words: cAMP assay in primary CPe cells. It is filed as cell-based. The procedure:
(§2) Choroid plexus tissue from lateral and fourth ventricles were dissected and incubated with 0.25% trypsin solution for 2.5 hours at 4° C. followed by 30 minutes at 37° C. Trypsin digestion was stopped by the addition of newborn calf serum and the cell suspension was centrifuged at 20 g for 10 minutes. Cells were resuspended in DMEM/F12 supplemented with 10% FBS, 1% penicillin/streptomycin, 4 mM L-glutamine, 200 ng/ml hydrocortisone, 5 ng/ml sodium selenite and 10 ng/ml EGF. 20 μM cytosine arabinoside was used for the first 4 days in culture to limit the growth of fibroblasts (Gath et al., 1997). Initially the cells were seeded onto a laminin coated 6 well plate and allowed to grow for 2 days before being transferred to laminin coated 96 well plates or 12 well inserts (Greiner Bio-One Ltd). On day 4 the media was replaced with DMEM/F12 supplemented with 10% FBS and 1% penicillin/streptomycin and changed every 2-3 days. After reaching confluency, CPe cells were serum deprived for 3 days prior to the beginning of the studies (between days 10-14).
The effect of Exendin-4 on the downstream GLP-1R signalling pathway was assessed by measuring the levels of cAMP in CPe cells using the Amersham cAMP Biotrak Enzyme immunoassay (EIA) System (RPN 225, GE Healthcare Life Sciences). […] The cells were subsequently lysed and cAMP detected according to the manufacturer's instructions.

Assay [7] deals with Na^+K^+ATPase. As to the kind of experiment: Na+K+ATPase activity assay in CPe cells. It counts as cell-based, rat. The procedure:
as §2
The effect of Exendin-4 on Na^+K^+ATPase activity in the choroid plexus was evaluated by the colorimetric measurement of phosphate released from ATP with the use of a phosphate assay kit (ab65622, Abcam); with Na^+K^+ATPase activity being defined as the portion of phosphate produced that is sensitive to Ouabain. CPe cells were incubated with aCSF for 1 hour at 37° C. before incubation in aCSF containing; 100 nM Exendin-4 (n=7), 5 μM PKI-16-22-amide (n=8), 100 nM Exendin-4+5 μM PKI-16-22-amide (n=8); in the presence and absence of 1 mM Ouabain for 30 minutes at 37° C. The cells were then lysed on ice and spun at 13,000 g to remove cell debris. Phosphate was measured as per the manufacturer's instructions. Briefly the samples were added to the reaction mix and incubated at room temperature for 60 minutes before the plate was read at 690 nm. Na^+K^+ATPase activity was calculated as the difference between the amount of phosphate produced in the presence and absence of Ouabain for each treatment.

In assay [8] the target is T1, GLP-1R. In words: GLP-1R localisation by immunofluorescent staining in choroid plexus explants. Conditions: 100 nM. It counts as cell-based. The procedure: as §1
For fluorescence labelling of choroid plexus explants and CPe cells, cells were first fixed in PBS containing 2% PFA and 2% glucose for 20 minutes at room temperature, washed in PBS and then permeabilised with methanol for 6 minutes at room temperature. The cells were stained using the same technique described above except that PBST was substituted with PBS.
Stained cells and sections were viewed under a Zeiss LSM 510 UV-confocal microscope (Carl Zeiss) and multiple Z-stack images were taken.

For assay [9], the system named is rat choroid plexus explants. In words: Intracellular Na+ levels (Sodium Green) in choroid plexus explants. It counts as cell-based. Conditions: artificial CSF+Exendin-4 for 3 hours vs no treatment. The procedure:
Intracellular Na^+ levels were observed using Sodium Green (iNa^+) (life technologies). Briefly, rat choroid plexus explants were incubated with iNa^+ for 30 minutes before treatment with artificial CSF (no treatment) or artificial CSF+Exendin-4 for 3 hours. The fluorescence intensity directly correlates with the amount of intracellular Na^+.

For assay [10] the following is noted: IIH patients, cited from earlier work; for visual field grades: no significant difference between groups.

On to `NS(=O)(=O)c1cc(C(=O)O)c(NCc2ccco2)cc1Cl` [furosemide], for which, in assay [1], the “effects on ICP in IIH patients” value is “clinically beneficial effects on ICP”.

Regarding `C[C@@H]1O[C@@H](O[C@H]2C[C@@H](O)[C@]3(CO)[C@H]4[C@H](O)C[C@]5(C)[C@@H](C6=CC(=O)OC6)CC[C@]5(O)[C@@H]4CC[C@]3(O)C2)[C@H](O)[C@H](O)[C@H]1O` [ouabain, Ouabain], the CSF secretion result in assay [2] is on record as “totally inhibited”.

As for Exendin-4, the “GLP-1R mRNA level” value was “significant increases” in assay [3] (3 hours, vs aCSF) and “returned to basal levels” in assay [3] (6 hours). In addition, the GLP-1R protein level entry is on record as “significant increases” in assay [3] (3 hours, vs aCSF) and “remained high” in assay [3] (6 hours). Moreover, the figures for the “change in ICP from baseline” value in assay [4] (1 μg/kg), in [4] (3 μg/kg) and in assay [4] (5 μg/kg) were “lowered the ICP from baseline”, “lowered the ICP from baseline” and “greatest reduction”, respectively. Moreover, in assay [4] (5 μg/kg, 24 hours), the “ICP over a 24 hour period” value is “remained reduced”. In assay [4] (conscious rats, 20 μg/kg subcutaneous), the “time to significant ICP reduction compared to saline” value was not above 10 min. Besides, the “persistence of ICP reduction during recording” value in assay [4] (conscious rats, 20 μg/kg subcutaneous, 60 minutes recording) is reported as “remained significantly lower for the rest of the recording; also recorded: lasted for the full 60 minutes”. Besides, the “ICP reduction from baseline” value in assay [4] (conscious rats, 20 μg/kg subcutaneous, within 10 minutes) amounted to 60.6±4.9%. For the same compound, the “cAMP levels in choroid plexus explants” value in assay [5] is recorded as “increased”; in assay [5] (listed as exendin-4), “increased levels of cAMP”. The “increase in cAMP compared to baseline” value in [6] (100 nM, 30 minutes, 1 mM IBMX) was 2 fold. Also, the “cAMP levels in CPe cells compared to control (in words)” value in [6] (FIG. 10A) was “significantly increased”. Further, the “Na+K+-ATPase activity compared to control (in words)” value in [7] (100 nM, 30 minutes, FIG. 10B) is listed as “reduced”. Also, in assay [7] (100 nM, 30 minutes, ouabain-sensitive), the “Na+K+ATPase specific phosphate production” value is listed as 39.3±9.4 % of control. In addition, the “GLP-1R localisation after 15 minutes” value in assay [8] is “predominantly restricted to the apical surface; also recorded: relocation of the GLP-1R to the apical surface”. Besides, the “GLP-1R localisation after 30 minutes” value in assay [8] (30 minutes) is “translocated back to the cytoplasm; also recorded: internalised”. Besides, the entries for the “intracellular Na+ levels (Sodium Green fluorescence)” value in [9] and in assay [9] (listed as exendin-4) were “higher numbers of intense fluorescent choroid plexus epithelial cells with no treatment” and “reduce intracellular sodium”, respectively.

On to “myristoylated protein kinase inhibitor (PKI)-(14-22)-amide (Myristoyl-SGRTGRRNA-NH2; UniProt P61925 14-22, looked up, fragment) [PKA inhibitor]”, for which the “effect on the Exendin-4 reduction in Na+K+ATPase activity” value in [7] (5 μM PKA inhibitor + 100 nM Exendin-4) is recorded as “abolish the Exendin-4 reduction”.

Regarding `CC(=O)Nc1nnc(S(N)(=O)=O)s1` [Acetazolamide], the visual field grades entry in assay [10] is reported as “improved from baseline”.

For the compound Exendin-9, in assay [8], the “GLP-1R localisation after 15 minutes” value is “predominantly restricted to the apical surface; also recorded: restricted to the apical membrane”.

In the case of `CC1(C)O[C@@H]2[C@@H](CO[C@@]3(COS(N)(=O)=O)OC(C)(C)O[C@@H]23)O1` [Topiramate], in assay [10], the visual field grades result is given as “improved from baseline”, the “therapeutic benefit on IIH versus acetazolamide control cohort” value is “no therapeutic benefit on IIH was noted above the control cohort” and the weight loss entry is “induce weight loss”.
